{"source": "paper PMC5218480", "about": "(PLoS ONE, 2017)", "tested_on": "MV-4-11 cells", "assay": "Gene expression microarray analysis (Affymetrix PrimeView) and GSEA", "type": "cell-based, human", "set-up": "RFU PODN (11730768_x_at) / Fold change /veh PODN (11730768_x_at) / RFU LINC00158 (11744669_a_at) / Fold change /veh LINC00158 (11744669_a_at) / RFU DUSP10 (11751237_a_at) / Fold change /veh DUSP10 (11751237_a_at) / RFU ID3 (11757404_x_at) / Fold change /veh ID3 (11757404_x_at) / RFU PLEKHG5 (11737974_s_at) / Fold change /veh PLEKHG5 (11737974_s_at) / RFU LRRC4B (11730491_at) / Fold change /veh LRRC4B (11730491_at) / RFU GIMAP4 (11747438_a_at) / Fold change /veh GIMAP4 (11747438_a_at) / RFU KRT8 (11758183_x_at) / Fold change /veh KRT8 (11758183_x_at) / RFU CNN1 (11734310_a_at) / Fold change /veh CNN1 (11734310_a_at) / RFU VPS37D (11726825_at) / Fold change /veh VPS37D (11726825_at) / RFU C10orf10 (11716522_x_at) / Fold change /veh C10orf10 (11716522_x_at) / RFU KIR2DL2 /// KIR2DL4 /// KIR2DL5A /// KIR2DL5B /// KIR2DS1 /// KIR2DS2 /// KIR2DS3 /// KIR2DS4 /// KIR3DL3 /// KIR3DL3 /// KIR3DS1 (11738374_at) / Fold change /veh KIR2DL2 /// KIR2DL4 /// KIR2DL5A /// KIR2DL5B /// KIR2DS1 /// KIR2DS2 /// KIR2DS3 /// KIR2DS4 /// KIR3DL3 /// KIR3DL3 /// KIR3DS1 (11738374_at) / RFU C1QL1 (11718748_at) / Fold change /veh C1QL1 (11718748_at) / RFU TMPRSS4 (11747572_a_at) / Fold change /veh TMPRSS4 (11747572_a_at) / RFU HAMP (11756126_x_at) / Fold change /veh HAMP (11756126_x_at) / RFU RNFT2 (11725882_a_at) / Fold change /veh RNFT2 (11725882_a_at) / RFU NR4A2 (11747474_a_at) / Fold change /veh NR4A2 (11747474_a_at) / RFU ABCC12 (11746883_a_at) / Fold change /veh ABCC12 (11746883_a_at) / RFU TMEM136 (11760407_x_at) / Fold change /veh TMEM136 (11760407_x_at) / RFU CLDN22 /// WWC2 (11732394_at) / Fold change /veh CLDN22 /// WWC2 (11732394_at) / RFU HLA-DPB1 (11760878_x_at) / Fold change /veh HLA-DPB1 (11760878_x_at) / RFU SPINT1 (11716480_a_at) / Fold change /veh SPINT1 (11716480_a_at) / RFU GAP43 (11754022_s_at) / Fold change /veh GAP43 (11754022_s_at) / RFU A4GNT (11735810_at) / Fold change /veh A4GNT (11735810_at) / RFU PRB3 (11715151_x_at) / Fold change /veh PRB3 (11715151_x_at) / RFU TUBB4B (11761932_at) / Fold change /veh TUBB4B (11761932_at) / RFU CAPN14 (11732068_a_at) / Fold change /veh CAPN14 (11732068_a_at) / RFU TMCC2 (11721928_a_at) / Fold change /veh TMCC2 (11721928_a_at) / RFU IRGQ (11745062_a_at) / Fold change /veh IRGQ (11745062_a_at) / RFU FAM174B (11720279_a_at) / Fold change /veh FAM174B (11720279_a_at) / RFU TMPRSS4 (11748680_a_at) / Fold change /veh TMPRSS4 (11748680_a_at) / RFU FAM212B (11763350_a_at) / Fold change /veh FAM212B (11763350_a_at) / RFU PLEKHG5 (11743358_a_at) / Fold change /veh PLEKHG5 (11743358_a_at) / RFU ZSCAN30 (11745921_a_at) / Fold change /veh ZSCAN30 (11745921_a_at) / RFU CMKLR1 (11741424_a_at) / Fold change /veh CMKLR1 (11741424_a_at) / RFU LOC101060620 /// MAPK8IP1 (11723275_at) / Fold change /veh LOC101060620 /// MAPK8IP1 (11723275_at) / RFU SPTSSB (11747773_x_at) / Fold change /veh SPTSSB (11747773_x_at) / RFU PRSS12 (11739890_at) / Fold change /veh PRSS12 (11739890_at) / RFU BIN1 (11741810_x_at) / Fold change /veh BIN1 (11741810_x_at) / RFU WNT11 (11732464_a_at) / Fold change /veh WNT11 (11732464_a_at) / RFU C10orf10 (11716521_a_at) / Fold change /veh C10orf10 (11716521_a_at) / RFU C5orf56 (11738089_at) / Fold change /veh C5orf56 (11738089_at) / RFU CYB561 (11721691_x_at) / Fold change /veh CYB561 (11721691_x_at) / RFU ANKRD19P (11752326_a_at) / Fold change /veh ANKRD19P (11752326_a_at) / RFU OR2T12 /// OR2T33 /// OR2T8 (11738714_s_at) / Fold change /veh OR2T12 /// OR2T33 /// OR2T8 (11738714_s_at) / RFU VCAN (11748164_a_at) / Fold change /veh VCAN (11748164_a_at) / RFU JSRP1 (11732532_at) / Fold change /veh JSRP1 (11732532_at) / RFU KRTAP10-11 (11738290_x_at) / Fold change /veh KRTAP10-11 (11738290_x_at) / RFU MYO3A (11730013_a_at) / Fold change /veh MYO3A (11730013_a_at) / RFU EBF3 (11725865_a_at) / Fold change /veh EBF3 (11725865_a_at) / RFU CAMK2N1 (11719241_x_at) / Fold change /veh CAMK2N1 (11719241_x_at) / RFU C5orf56 (11738088_a_at) / Fold change /veh C5orf56 (11738088_a_at) / RFU OLFML3 (11715873_a_at) / Fold change /veh OLFML3 (11715873_a_at) / RFU LOC100653217 /// NTM (11731650_a_at) / Fold change /veh LOC100653217 /// NTM (11731650_a_at) / RFU MAPK11 (11762145_a_at) / Fold change /veh MAPK11 (11762145_a_at) / RFU FIZ1 (11724087_x_at) / Fold change /veh FIZ1 (11724087_x_at) / RFU OASL (11726364_x_at) / Fold change /veh OASL (11726364_x_at) / RFU SOX15 (11748057_x_at) / Fold change /veh SOX15 (11748057_x_at) / RFU CD79A (11719716_a_at) / Fold change /veh CD79A (11719716_a_at) / RFU HIST1H1D (11736915_at) / Fold change /veh HIST1H1D (11736915_at) / RFU CASKIN2 (11723855_a_at) / Fold change /veh CASKIN2 (11723855_a_at) / RFU LOC730098 (11760151_x_at) / Fold change /veh LOC730098 (11760151_x_at) / RFU OR4N2 (11742367_at) / Fold change /veh OR4N2 (11742367_at) / RFU PRRT2 (11749266_a_at) / Fold change /veh PRRT2 (11749266_a_at) / RFU SNX32 (11753110_a_at) / Fold change /veh SNX32 (11753110_a_at) / RFU CDHR5 (11726645_a_at) / Fold change /veh CDHR5 (11726645_a_at) / RFU RCAN1 (11760418_a_at) / Fold change /veh RCAN1 (11760418_a_at) / RFU FAM167A (11723789_a_at) / Fold change /veh FAM167A (11723789_a_at) / RFU FAM26E (11764081_at) / Fold change /veh FAM26E (11764081_at) / RFU ISYNA1 (11749810_s_at) / Fold change /veh ISYNA1 (11749810_s_at) / RFU ACY1 (11761880_at) / Fold change /veh ACY1 (11761880_at) / RFU 11764098_at / Fold change /veh 11764098_at / RFU SAMD14 (11745864_x_at) / Fold change /veh SAMD14 (11745864_x_at) / RFU NPB (11741838_a_at) / Fold change /veh NPB (11741838_a_at) / RFU TMPRSS6 (11731388_a_at) / Fold change /veh TMPRSS6 (11731388_a_at) / RFU KRTAP10-2 (11738614_at) / Fold change /veh KRTAP10-2 (11738614_at) / RFU ARHGAP8 /// PRR5-ARHGAP8 (11727945_x_at) / Fold change /veh ARHGAP8 /// PRR5-ARHGAP8 (11727945_x_at) / RFU KRTAP5-7 /// NADSYN1 (11734609_at) / Fold change /veh KRTAP5-7 /// NADSYN1 (11734609_at) / RFU RASL12 (11751679_a_at) / Fold change /veh RASL12 (11751679_a_at) / RFU CDKN2B (11736163_a_at) / Fold change /veh CDKN2B (11736163_a_at) / RFU PRF1 (11729649_at) / Fold change /veh PRF1 (11729649_at) / RFU, ZNF638 /// ZNF638-IT1 / Fold change vs veh, ZNF638 /// ZNF638-IT1 / RFU, PANK3 / Fold change vs veh, PANK3 / RFU, SH3YL1 / Fold change vs veh, SH3YL1 / RFU, ZEB2 / Fold change vs veh, ZEB2 / RFU, NRIP1 / Fold change vs veh, NRIP1 / RFU, PTTG1IP / Fold change vs veh, PTTG1IP / RFU, CAPN2 / Fold change vs veh, CAPN2 / RFU, MED14 / Fold change vs veh, MED14 / RFU, SNORA58 / Fold change vs veh, SNORA58 / RFU, C1orf63 / Fold change vs veh, C1orf63 / RFU, LRRFIP1 / Fold change vs veh, LRRFIP1 / RFU, NDUFAF7 / Fold change vs veh, NDUFAF7 / RFU, SLC12A2 / Fold change vs veh, SLC12A2 / RFU, IBTK / Fold change vs veh, IBTK / RFU, ESF1 / Fold change vs veh, ESF1 / Fold change vs veh, TMEM50B / RFU, TAOK1 / Fold change vs veh, TAOK1 / RFU, ACBD3 / Fold change vs veh, ACBD3 / RFU, TMA16 / Fold change vs veh, TMA16 / RFU, RWDD3 / Fold change vs veh, RWDD3 / RFU, BCAT1 / Fold change vs veh, BCAT1 / RFU, EDEM3 / Fold change vs veh, EDEM3 / RFU, TMEM33 / Fold change vs veh, TMEM33 / RFU, WDR75 / Fold change vs veh, WDR75 / RFU, AHCTF1 / Fold change vs veh, AHCTF1 / RFU, TFRC / Fold change vs veh, TFRC / RFU, ZDHHC17 / Fold change vs veh, ZDHHC17 / RFU, NOM1 / Fold change vs veh, NOM1 / RFU, ARL8B / Fold change vs veh, ARL8B / RFU, ZBTB11 / Fold change vs veh, ZBTB11 / RFU, TAMM41 / Fold change vs veh, TAMM41 / RFU, KIAA1704 /// LOC100996395 / Fold change vs veh, KIAA1704 /// LOC100996395 / RFU, ING1 / Fold change vs veh, ING1 / RFU, TRMT61B / Fold change vs veh, TRMT61B / RFU, FUBP3 / Fold change vs veh, FUBP3 / RFU, TP53 / Fold change vs veh, TP53 / RFU, TNKS2 / Fold change vs veh, TNKS2 / RFU, ZFP14 / Fold change vs veh, ZFP14 / RFU, ACTR2 / Fold change vs veh, ACTR2 / RFU, PPP3R1 / Fold change vs veh, PPP3R1 / RFU, PIK3R1 / Fold change vs veh, PIK3R1 / RFU, HNRNPA1 / Fold change vs veh, HNRNPA1 / RFU, RNF170 / Fold change vs veh, RNF170 / RFU, ZNF28 / Fold change vs veh, ZNF28 / RFU, RNGTT / Fold change vs veh, RNGTT / RFU, OGT / Fold change vs veh, OGT / RFU, BRD1 / Fold change vs veh, BRD1 / RFU, MARS / Fold change vs veh, MARS / RFU, ZNF655 / Fold change vs veh, ZNF655 / RFU, FAHD1 / Fold change vs veh, FAHD1 / RFU, BDP1 / Fold change vs veh, BDP1 / RFU, LRRCC1 / Fold change vs veh, LRRCC1 / RFU, ARID1A / Fold change vs veh, ARID1A / RFU, ZNF146 / Fold change vs veh, ZNF146 / RFU, ZNF330 / Fold change vs veh, ZNF330 / RFU, GPN3 / Fold change vs veh, GPN3 / RFU, C9orf123 / Fold change vs veh, C9orf123 / RFU, N4BP2L2 / Fold change vs veh, N4BP2L2 / RFU, ARFIP1 / Fold change vs veh, ARFIP1 / RFU, FAM179B / Fold change vs veh, FAM179B / RFU, BCL10 / Fold change vs veh, BCL10 / RFU, UHRF1BP1L / Fold change vs veh, UHRF1BP1L / RFU, BET1 / Fold change vs veh, BET1 / RFU, CNOT2 / Fold change vs veh, CNOT2 / RFU, ZNF268 / Fold change vs veh, ZNF268 / Fold change vs veh, ZNF507 / RFU, DGCR2 / Fold change vs veh, DGCR2 / RFU, WDSUB1 / Fold change vs veh, WDSUB1 / Fold change vs veh, HSP90B1 /// MIR3652 / RFU, ADSS / Fold change vs veh, ADSS / RFU, GK / Fold change vs veh, GK / RFU, ZNF148 / Fold change vs veh, ZNF148 / RFU, TAF9 / Fold change vs veh, TAF9 / RFU, SLC1A5 / Fold change vs veh, SLC1A5 / RFU, SLMO2 / Fold change vs veh, SLMO2 / RFU, ABCC4 / Fold change vs veh, ABCC4 / RFU, LOC101060439 /// RAP1B / Fold change vs veh, LOC101060439 /// RAP1B / RFU, RFX7 / Fold change vs veh, RFX7 / RFU, GTPBP10 / Fold change vs veh, GTPBP10 / RFU, CNEP1R1 / Fold change vs veh, CNEP1R1 / RFU, BIVM-ERCC5 /// ERCC5 / Fold change vs veh, BIVM-ERCC5 /// ERCC5 / RFU, ILF3 / Fold change vs veh, ILF3 / RFU 11762660_at / Fold change /veh 11762660_at / RFU VCAN (11757783_s_at) / Fold change /veh VCAN (11757783_s_at) / RFU DDX43 (11728927_at) / Fold change /veh DDX43 (11728927_at) / RFU KRT8 (11758188_x_at) / Fold change /veh KRT8 (11758188_x_at) / RFU NKD1 (11759106_at) / Fold change /veh NKD1 (11759106_at) / RFU SRD5A1 (11742802_a_at) / Fold change /veh SRD5A1 (11742802_a_at) / RFU TPSAB1 /// TPSB2 (11721975_s_at) / Fold change /veh TPSAB1 /// TPSB2 (11721975_s_at) / RFU GSTM3 (11746129_a_at) / Fold change /veh GSTM3 (11746129_a_at) / RFU IL23R (11737362_x_at) / Fold change /veh IL23R (11737362_x_at) / RFU TMEM51 (11727254_a_at) / Fold change /veh TMEM51 (11727254_a_at) / RFU PIWIL2 (11732686_x_at) / Fold change /veh PIWIL2 (11732686_x_at) / RFU ORM1 (11744905_x_at) / Fold change /veh ORM1 (11744905_x_at) / RFU CCDC152 (11743942_at) / Fold change /veh CCDC152 (11743942_at) / RFU ECM1 (11717891_a_at) / Fold change /veh ECM1 (11717891_a_at) / RFU IL23R (11748794_a_at) / Fold change /veh IL23R (11748794_a_at) / RFU TNFAIP8L3 (11732012_x_at) / Fold change /veh TNFAIP8L3 (11732012_x_at) / RFU MBOAT4 (11741988_at) / Fold change /veh MBOAT4 (11741988_at) / RFU 11764193_at / Fold change /veh 11764193_at / RFU TMEM53 (11763286_at) / Fold change /veh TMEM53 (11763286_at) / RFU MAGEB2 (11727129_at) / Fold change /veh MAGEB2 (11727129_at) / RFU TMEM200A (11744735_a_at) / Fold change /veh TMEM200A (11744735_a_at) / RFU CCDC152 (11751479_a_at) / Fold change /veh CCDC152 (11751479_a_at) / RFU FAM211A (11726209_a_at) / Fold change /veh FAM211A (11726209_a_at) / RFU RGS16 (11746705_a_at) / Fold change /veh RGS16 (11746705_a_at) / RFU VCAN (11755009_s_at) / Fold change /veh VCAN (11755009_s_at) / RFU RHOB (11743442_s_at) / Fold change /veh RHOB (11743442_s_at) / RFU RGS16 (11720943_a_at) / Fold change /veh RGS16 (11720943_a_at) / RFU RGS16 (11720944_at) / Fold change /veh RGS16 (11720944_at) / RFU, VPS4B / Fold change vs veh, VPS4B / RFU, CREB1 / Fold change vs veh, CREB1 / RFU, DNAJC13 / Fold change vs veh, DNAJC13 / RFU, GNAQ / Fold change vs veh, GNAQ / RFU, CDK5R1 / Fold change vs veh, CDK5R1 / RFU, ZRANB3 / Fold change vs veh, ZRANB3 / RFU, CUL4A / Fold change vs veh, CUL4A / RFU, CCNY / Fold change vs veh, CCNY / RFU, UFL1 / Fold change vs veh, UFL1 / RFU, COG3 / Fold change vs veh, COG3 / RFU, DIAPH2 / Fold change vs veh, DIAPH2 / RFU, SKA2 / Fold change vs veh, SKA2 / RFU, AFF3 / Fold change vs veh, AFF3 / RFU, LMF1 / Fold change vs veh, LMF1 / RFU, IPO11 / Fold change vs veh, IPO11 / RFU, DFFB / Fold change vs veh, DFFB / RFU, FOXP1 / Fold change vs veh, FOXP1 / RFU, CARD8 / Fold change vs veh, CARD8 / RFU, STRN3 / Fold change vs veh, STRN3 / RFU, ADK / Fold change vs veh, ADK / RFU, RASSF2 / Fold change vs veh, RASSF2 / RFU, WIPF1 / Fold change vs veh, WIPF1 / RFU, LARP1B / Fold change vs veh, LARP1B / RFU, RASA1 / Fold change vs veh, RASA1 / RFU, RB1 / Fold change vs veh, RB1 / RFU, PPFIA1 / Fold change vs veh, PPFIA1 / RFU, MAT2A / Fold change vs veh, MAT2A / RFU, CCT5 / Fold change vs veh, CCT5 / RFU, WDR92 / Fold change vs veh, WDR92 / RFU, CUX1 / Fold change vs veh, CUX1 / RFU, TTC7A / Fold change vs veh, TTC7A / RFU, TMEM135 / Fold change vs veh, TMEM135 / RFU, DEPTOR / Fold change vs veh, DEPTOR / RFU, CPM / Fold change vs veh, CPM / RFU, DNAJB6 / Fold change vs veh, DNAJB6 / RFU, CACNA2D3 / Fold change vs veh, CACNA2D3 / RFU, DTX4 / Fold change vs veh, DTX4 / RFU, TFCP2 / Fold change vs veh, TFCP2 / RFU, GMCL1 /// GMCL1P1 / Fold change vs veh, GMCL1 /// GMCL1P1 / RFU, AEBP2 / Fold change vs veh, AEBP2 / RFU, SNHG1 /// SNORD22 /// SNORD25 /// SNORD26 /// SNORD27 /// SNORD28 /// SNORD29 /// SNORD31 / Fold change vs veh, SNHG1 /// SNORD22 /// SNORD25 /// SNORD26 /// SNORD27 /// SNORD28 /// SNORD29 /// SNORD31 / Fold change (Aza/veh), C12orf56 (ProbeSet 11735607_a_at) / Fold change (ACY-1035/veh), C12orf56 (ProbeSet 11735607_a_at) / Fold change (Aza/veh), FGFR1OP (ProbeSet 11751329_s_at) / Fold change (ACY-1035/veh), FGFR1OP (ProbeSet 11751329_s_at) / Fold change (Aza/veh), VPS36 (ProbeSet 11739960_a_at) / Fold change (ACY-1035/veh), VPS36 (ProbeSet 11739960_a_at) / RFU SYPL1 (11715823_x_at) / Fold change /veh SYPL1 (11715823_x_at) / RFU IGFBP7 (11715501_s_at) / Fold change /veh IGFBP7 (11715501_s_at) / RFU REEP3 (11722064_at) / Fold change /veh REEP3 (11722064_at) / RFU IGLL1 (11728026_x_at) / Fold change /veh IGLL1 (11728026_x_at): dose or concentration left out as unconfirmed", "conditions": "ProbeSet 11731583_a_at; LIST D", "data": [{"smiles": "Nc1ncn([C@@H]2O[C@H](CO)[C@@H](O)[C@H]2O)c(=O)n1", "note": "[azacitidine]", "values": [{"measurement": "Fold change vs veh, LARP1B", "value": 0.75}]}]}
